Biological target: Recombinant human cathepsin S (CatS) (Homo sapiens, UniProt P25774)
Experiment: Recombinant human cathepsin S (CatS) inhibition assay, fluorogenic substrate Z-Valine-Valine-Arginine-AMC;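 also: Baculovirus-expressed CatS in pH 5.0 sodium acetate buffer with DTT and NaCl, fluorescence read each minute over 20 min, inhibition derived from rate slope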
Details: not given

Sequence of Recombinant human cathepsin S (CatS) (P25774 115-331): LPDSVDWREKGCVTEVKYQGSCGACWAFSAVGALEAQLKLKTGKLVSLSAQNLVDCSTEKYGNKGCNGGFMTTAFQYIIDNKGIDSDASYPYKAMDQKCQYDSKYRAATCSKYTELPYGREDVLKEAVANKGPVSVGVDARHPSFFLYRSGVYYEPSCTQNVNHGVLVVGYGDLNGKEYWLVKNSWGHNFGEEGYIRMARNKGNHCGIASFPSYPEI

Question: `C[C@H]1COCCN1CCCn1nc(-c2ccc(Cl)c(C#Cc3ccc4c(c3)CN(C3CC3)CC4)c2)c2c1CCN(S(C)(=O)=O)C2` [Example 277, 7-({2-Chloro-5-[1-{3-[(3S)-3-methylmorpholin-4-yl]propyl}-5-(methylsulfonyl)-4,5,6,7-tetrahydro-1H-pyrazolo[4,3-c]pyridin-3-yl]phenyl}ethynyl)-2-cyclopropyl-1,2,3,4-tetrahydroisoquinoline] was tested. Which IC50 did it give?
Answer: 200 nM

Question: For `CS(=O)(=O)N1CCc2c(c(-c3ccc(Cl)c(C#Cc4ccc(Cl)cc4)c3)nn2CC(O)CN2CCC(N3CCCC3=O)CC2)C1` (centres unmarked) [Example 123], which IC50 is on record?
Answer: 10 nM

Question: With `CS(=O)(=O)N1CCc2c(c(-c3ccc(Cl)c(C#Cc4ccc(Cl)cc4)c3)nn2CC(O)CN2CCCC2)C1` (centres unmarked) [Example 129, 1-{3-[4-Chloro-3-(4-chloro-phenylethynyl)-phenyl]-5-methanesulfonyl-4,5,6,7-tetrahydro-pyrazolo[4,3-c]pyridin-1-yl}-3-pyrrolidin-1-yl-propan-2-ol] as the compound, how does the IC50 read?
Answer: 120 nM

Question: `C[C@H]1COCCN1CCCn1nc(-c2ccc(Cl)c(C#Cc3ccc(Cl)c(CN(CCO)CCO)c3)c2)c2c1CCN(C(=O)C(N)=O)C2` [Example 272, (S)-2-{3-[3-(3-{[Bis-(2-hydroxy-ethyl)-amino]-methyl}-4-chloro-phenylethynyl)-4-chloro-phenyl]-1-[3-(3-methyl-morpholin-4-yl)-propyl]-1,4,6,7-tetrahydro-pyrazolo[4,3-c]pyridin-5-yl}-2-oxo-acetamide] was tested. Which IC50 did it give?
Answer: 30 nM

Question: With `CS(=O)(=O)N1CCc2c(c(-c3ccc(Cl)c(CCc4ccc(Cl)cc4)c3)nn2CC(O)CN2CCOCC2)C1` (centres unmarked) [Example 149, 1-(3-{4-Chloro-3-[2-(4-chloro-phenyl)-ethyl]-phenyl}-5-methanesulfonyl-4,5,6,7-tetrahydro-pyrazolo[4,3-c]pyridin-1-yl)-3-morpholin-4-yl-propan-2-ol] as the compound, how does the IC50 read?
Answer: 110 nM

Question: `CC(NCc1ccc(C#Cc2cc(-c3nn(CCCN4CCN(c5ccccn5)CC4)c4c3CN(S(C)(=O)=O)CC4)ccc2Cl)cc1)c1ccccc1` (centres unmarked) [Example 219, N-({4-[(2-Chloro-5-{5-(methylsulfonyl)-1-[3-(4-pyridin-2-ylpiperazin-1-yl)propyl]-4,5,6,7-tetrahydro-1H-pyrazolo[4,3-c]pyridin-3-yl}phenyl)ethynyl]phenyl}methyl)-1-phenylethanamine] was tested. Which IC50 did it give?
Answer: 40 nM

Question: With `CS(=O)(=O)N1CCc2c(c(-c3ccc(Cl)c(C#Cc4ccc(CNCc5ccc(Cl)cc5)c(F)c4)c3)nn2CCCN2CCOCC2)C1` [Example 436, 1-[4-({2-Chloro-5-[5-(methylsulfonyl)-1-(3-morpholin-4-ylpropyl)-4,5,6,7-tetrahydro-1H-pyrazolo[4,3-c]pyridin-3-yl]phenyl}ethynyl)-2-fluorophenyl]-N-[(4-chlorophenyl)methyl]methanamine] as the compound, how does the IC50 read?
Answer: 280 nM

Question: `CN(C)c1ccc2c(n1)n(C1CCN(CC(O)Cn3nc(-c4ccc(C(F)(F)F)c(C#Cc5ccc(Cl)cc5)c4)c4c3CCN(S(C)(=O)=O)C4)CC1)c(=O)n2C` (centres unmarked) [Example 120, 3-[1-(3-{3-[3-(4-Chloro-phenylethynyl)-4-trifluoromethyl-phenyl]-5-methanesulfonyl-4,5,6,7-tetrahydro-pyrazolo[4,3-c]pyridin-1-yl}-2-hydroxy-propyl)-piperidin-4-yl]-5-dimethylamino-1-methyl-1,3-dihydro-imidazo[4,5-b]pyridin-2-one] was tested. Which IC50 did it give?
Answer: 30 nM

Question: Which IC50 does the source give for `C[C@H]1COCCN1CCCn1nc(-c2ccc(Cl)c(CCc3ccc(CNCc4ccc(Cl)cc4)cc3)c2)c2c1CCN(C(=O)C(N)=O)C2` [Example 243, 2-[3-(4-Chloro-3-{2-[4-({[(4-chlorophenyl)methyl]amino}methyl)phenyl]ethyl}phenyl)-1-{3-[(3S)-3-methylmorpholin-4-yl]propyl}-1,4,6,7-tetrahydro-5H-pyrazolo[4,3-c]pyridin-5-yl]-2-oxoacetamide] here?
Answer: 40 nM

Question: How did the IC50 turn out when `CS(=O)(=O)N1CCc2c(c(-c3ccc(Cl)c(C#Cc4cncc(CNCc5ccccc5)c4)c3)nn2CCCN2CCOCC2)C1` [Example 427, 1-[5-({2-Chloro-5-[5-(methylsulfonyl)-1-(3-morpholin-4-ylpropyl)-4,5,6,7-tetrahydro-1H-pyrazolo[4,3-c]pyridin-3-yl]phenyl}ethynyl)pyridin-3-yl]-N-(phenylmethyl)methanamine] was run?
Answer: 1990 nM

Question: Which IC50 does the source give for `NC(=O)N1CCc2c(c(-c3ccc(Cl)c(C#Cc4ccc(CNCc5ccc(Cl)cc5)cc4)c3)nn2CCCN2CCC(C(F)(F)F)CC2)C1` [Example 455, 3-(4-Chloro-3-{[4-({[(4-chlorophenyl)methyl]amino}methyl)phenyl]ethynyl}phenyl)-1-{3-[4-(trifluoromethyl)piperidin-1-yl]propyl}-1,4,6,7-tetrahydro-5H-pyrazolo[4,3-c]pyridine-5-carboxamide] here?
Answer: 40 nM

Question: Which IC50 does the source give for `CS(=O)(=O)N1CCc2c(c(-c3ccc(Cl)c(CCCN4CCOCC4)c3)nn2CCCN2CCC(N3CCCC3=O)CC2)C1` [Example 105, 1-[1-(3-{3-[4-Chloro-3-(3-morpholin-4-yl-propyl)-phenyl]-5-methanesulfonyl-4,5,6,7-tetrahydro-pyrazolo[4,3-c]pyridin-1-yl}-propyl)-piperidin-4-yl]-pyrrolidin-2-one] here?
Answer: 1430 nM

Question: How did the IC50 turn out when `NC(=O)N1CCc2c(c(-c3ccc(Cl)c(C#Cc4ccc(Cl)c(C(=O)NC[C@@H]5CCCN5)c4)c3)nn2CCCN2CCSCC2)C1` [Example 558, 3-{4-Chloro-3-[(4-chloro-3-{[(2S)-pyrrolidin-2-ylmethyl]carbamoyl}phenyl)ethynyl]phenyl}-1-(3-thiomorpholin-4-ylpropyl)-1,4,6,7-tetrahydro-5H-pyrazolo[4,3-c]pyridine-5-carboxamide] was run?
Answer: 30 nM

Same assay, conditions: CatS IC50

Question: How did the IC50 turn out when `CC(C)(C)OC(=O)N1CCCN(CCCn2nc(-c3ccc(Cl)c(C#Cc4ccc(CNCc5ccc(Cl)cc5)cc4)c3)c3c2CCN(S(C)(=O)=O)C3)CC1` [Example 390, 1,1-Dimethylethyl 4-{3-[3-(4-chloro-3-{[4-({[(4-chlorophenyl)methyl]amino}methyl)phenyl]ethynyl}phenyl)-5-(methylsulfonyl)-4,5,6,7-tetrahydro-1H-pyrazolo[4,3-c]pyridin-1-yl]propyl}-1,4-diazepane-1-carboxylate] was run?
Answer: 150 nM

Question: For `CS(=O)(=O)N1CCc2c(c(-c3ccc(Cl)c(C#Cc4ccc(F)c(CNCc5ccccc5)c4)c3)nn2CCCN2CCOCC2)C1` [Example 290, 1-[5-({2-Chloro-5-[5-(methylsulfonyl)-1-(3-morpholin-4-ylpropyl)-4,5,6,7-tetrahydro-1H-pyrazolo[4,3-c]pyridin-3-yl]phenyl}ethynyl)-2-fluorophenyl]-N-(phenylmethyl)methanamine], which IC50 is on record?
Answer: 210 nM

Question: `CS(=O)(=O)N1CCc2c(c(-c3ccc(Cl)c(C#Cc4ccc(CNCc5ccc(Cl)cc5)cc4)c3)nn2CCCN2CCN(c3cccnc3)CC2)C1` [Example 417, 1-{4-[(2-Chloro-5-{5-(methylsulfonyl)-1-[3-(4-pyridin-3-ylpiperazin-1-yl)propyl]-4,5,6,7-tetrahydro-1H-pyrazolo[4,3-c]pyridin-3-yl}phenyl)ethynyl]phenyl}-N-[(4-chlorophenyl)methyl]methanamine] was tested. Which IC50 did it give?
Answer: 20 nM

Question: With `CS(=O)(=O)N1CCc2c(c(-c3ccc(Cl)c(C#Cc4cccc(CNc5ccccc5)c4)c3)nn2CCCN2CCOCC2)C1` [Example 511, N-{[3-({2-Chloro-5-[5-(methylsulfonyl)-1-(3-morpholin-4-ylpropyl)-4,5,6,7-tetrahydro-1H-pyrazolo[4,3-c]pyridin-3-yl]phenyl}ethynyl)phenyl]methyl}aniline] as the compound, how does the IC50 read?
Answer: 1610 nM

Question: Which IC50 does the source give for `NC(=O)N1CCc2c(c(-c3ccc(Cl)c(C#Cc4ccc(Cl)c(CNC5CC5)c4)c3)nn2CCCN2CCSCC2)C1` [Example 605, 3-[4-Chloro-3-({4-chloro-3-[(cyclopropylamino)methyl]phenyl}ethynyl)phenyl]-1-(3-thiomorpholin-4-ylpropyl)-1,4,6,7-tetrahydro-5H-pyrazolo[4,3-c]pyridine-5-carboxamide] here?
Answer: 40 nM

Question: With `C[C@H]1COCCN1CCCn1nc(-c2ccc(Cl)c(C#Cc3ccc(CNCc4cccs4)cc3)c2)c2c1CCN(S(C)(=O)=O)C2` [Example 433, 1-[4-({2-Chloro-5-[1-{3-[(3S)-3-methylmorpholin-4-yl]propyl}-5-(methylsulfonyl)-4,5,6,7-tetrahydro-1H-pyrazolo[4,3-c]pyridin-3-yl]phenyl}ethynyl)phenyl]-N-(2-thienylmethyl)methanamine] as the compound, how does the IC50 read?
Answer: 240 nM

Question: Which IC50 does the source give for `NC(=O)C(=O)N1CCc2c(c(-c3ccc(Cl)c(C#Cc4ccc(CNCc5ccc(Cl)cc5)cc4)c3)nn2CCCN2CCC(C(N)=O)CC2)C1` [Example 450, 1-(3-{5-[Amino(oxo)acetyl]-3-(4-chloro-3-{[4-({[(4-chlorophenyl)methyl]amino}methyl)phenyl]ethynyl}phenyl)-4,5,6,7-tetrahydro-1H-pyrazolo[4,3-c]pyridin-1-yl}propyl)piperidine-4-carboxamide] here?
Answer: 70 nM

Question: With `COC(=O)[C@@H]1Cc2ccc(C#Cc3cc(-c4nn(CCCN5CCOCC5)c5c4CN(S(C)(=O)=O)CC5)ccc3Cl)cc2CN1` [Example 198, Methyl (3S)-7-({2-chloro-5-[5-(methylsulfonyl)-1-(3-morpholin-4-ylpropyl)-4,5,6,7-tetrahydro-1H-pyrazolo[4,3-c]pyridin-3-yl]phenyl}ethynyl)-1,2,3,4-tetrahydroisoquinoline-3-carboxylate] as the compound, how does the IC50 read?
Answer: 70 nM

Question: How did the IC50 turn out when `NC(=O)N1CCc2c(c(-c3ccc(Cl)c(C#Cc4ccc(CNCc5ccc(Cl)cc5)cc4)c3)nn2CCCN2C[C@H]3COC[C@H]3C2)C1` [Example 170, 3-[4-Chloro-3-[(4-{[(4-chlorobenzyl)amino]methyl]phenyl)ethynyl]phenyl}-1-{3-[(3aR,6aS)-tetrahydro-1H-furo[3,4-c]pyrrol-5(3H)-yl]propyl}-1,4,6,7-tetrahydro-5H-pyrazolo[4,3-c]pyridine-5-carboxamide] was run?
Answer: 50 nM

Same assay, conditions: CatS IC50, Table 2; average of results obtained

Question: How did the IC50 turn out when `CS(=O)(=O)N1CCc2c(c(-c3ccc(Cl)c(C#Cc4ccccc4C(F)(F)F)c3)nn2CCCN2CCOCC2)C1` [Example 34, 3-[4-Chloro-3-(2-trifluoromethyl-phenylethynyl)-phenyl]-5-methanesulfonyl-1-(3-morpholin-4-yl-propyl)-4,5,6,7-tetrahydro-1H-pyrazolo[4,3-c]pyridine] was run?
Answer: 870 nM

Source: patent US20080200454A1, “CARBON-LINKED TETRAHYDRO-PYRAZOLO-PYRIDINE MODULATORS OF CATHEPSIN S” (priority 2007, published 2008)
